In assay [1] the target is T1, capsaicin receptor (rat Gasser ganglia) (Rattus norvegicus, UniProt O35433).
T1 construct: from tissue; host or cells: Gasser ganglia of female Sprague-Dawley rats
The assay can be described thus: biochemical. Conditions: rat Gasser ganglia. Format: binding. The protocol: Membrane preparations are obtained from the DRG and Gasser ganglia of female Sprague-Dawley rats (250-300 g); animals are sacrificed by decapitation under ether anesthesia, the ganglia removed and collected into ice-cold disrupting buffer (5 mM KCl, 5.8 mM NaCl, 2 mM MgCl2, 12 mM glucose, 137 mM sucrose, 10 mM HEPES, 5 mM DTT, 2 mM EGTA, pH 7.4). After homogenization with the aid of a Polytron tissue homogenizer, samples are filtered over surgical gauze and then washed twice with the same buffer and stored at -70° C. Particulate fractions are obtained from other rat neural tissues (cerebellum, spinal cord, preoptic region, striatum, substantia nigra) and from DRG of pigs (Mt. Airy Locker Co., Mt. Airy, MD), sheep, cows (kindly provided by Dr. Solomon, USDA, Beltsville, MD), and chickens (Truslow Farms, Chesterton, MD) by a similar procedure.
The binding assays are carried out in a volume of 250 ul, containing assay buffer (same as the disrupting buffer but omitting DTT and EGTA and including 0.75 mM CaCl2), 26-30 ug of membrane protein and 0.25 mg/ml bovine serum albumin. […] Tubes are kept on ice while the additions are made. The assay mixture is incubated for 10 min at 37° C.; it is then cooled on ice. 150 ul of the mixture is pipetted onto Whatman GF/C or GF/F glass fiber filters presoaked with 10 mg/ml bovine serum albumin in 20 mM Tris-Cl (pH 7.4) and filtered immediately. An aliquot of 50 ul of the mixture is removed to determine total radioactivity. The filters are washed with 100 ml of ice-cold 20 mM Tris-Cl, pH 7 4, containing 0.1 mg/ml bovine serum albumin, and the bound radioactivity is determined by scintillation counting. Non-specific binding is determined in the presence of 100-1000 nM non-radioactive RTX.
Binding data from saturation experiments using increasing concentrations of hot ligand are analyzed using the collection of computer programs described by McPherson (McPherson, G.A., Analysis of radioligand binding experiments: a collection of computer programs for the IBM PC, J.Pharmacol.Methods, 14 (1985) 213-228).
Scatchard and Hill transformations are performed by the Equilibrium Binding Data Analysis program referred to as EBDA. Data are further analyzed by the curvilinear regression program LIGAND (Munson, R.J. and Rodbard, D., LIGAND: a versatile computerized approach for characterization of ligand-binding systems, Anal.Biochem, 107 (1980) 220-239).
RTX binding is also analyzed in the presence of a fixed, low (60 pM or 300 pM) concentration of [^3 H]RTX and increasing concentrations of non-radioactive RTX or other ligand. […] The Ki value for RTX is calculated from the relationship Ki =ID50 -L; the Ki values for other ligands are calculated from the general form of the equation (Cheng, Y.C. and Prusoff, W.H., Relation between the inhibition constant (Ki) and the concentration of inhibitor which causes 50 per cent inhibition (I50) of an enzymatic reaction, Biochem. Pharmacol., 22 (1973) 3099-3108) Ki =IC50 /(1+L/Kd) where L=concentration of labelled ligand and Kd =dissociation constant of radioactive ligand as determined in the saturation experiments using variable concentrations of hot ligand. Comparison of the quality of fit using single and multiple site competition models is performed by the LIGAND program.
Gasser ganglia represents the […] homolog of the dorsal root ganglia.

Assay [2] concerns capsaicin receptor (cow DRG). The assay can be described thus: [^3H]RTX binding to cow DRG membranes. Conditions: DRG from cows.
The test system of the next assay is striatum. The assay can be described thus: [^3H]RTX binding to rat striatum.

pKd: −log10 of the molar value.

T1 sequence (O35433 whole entry): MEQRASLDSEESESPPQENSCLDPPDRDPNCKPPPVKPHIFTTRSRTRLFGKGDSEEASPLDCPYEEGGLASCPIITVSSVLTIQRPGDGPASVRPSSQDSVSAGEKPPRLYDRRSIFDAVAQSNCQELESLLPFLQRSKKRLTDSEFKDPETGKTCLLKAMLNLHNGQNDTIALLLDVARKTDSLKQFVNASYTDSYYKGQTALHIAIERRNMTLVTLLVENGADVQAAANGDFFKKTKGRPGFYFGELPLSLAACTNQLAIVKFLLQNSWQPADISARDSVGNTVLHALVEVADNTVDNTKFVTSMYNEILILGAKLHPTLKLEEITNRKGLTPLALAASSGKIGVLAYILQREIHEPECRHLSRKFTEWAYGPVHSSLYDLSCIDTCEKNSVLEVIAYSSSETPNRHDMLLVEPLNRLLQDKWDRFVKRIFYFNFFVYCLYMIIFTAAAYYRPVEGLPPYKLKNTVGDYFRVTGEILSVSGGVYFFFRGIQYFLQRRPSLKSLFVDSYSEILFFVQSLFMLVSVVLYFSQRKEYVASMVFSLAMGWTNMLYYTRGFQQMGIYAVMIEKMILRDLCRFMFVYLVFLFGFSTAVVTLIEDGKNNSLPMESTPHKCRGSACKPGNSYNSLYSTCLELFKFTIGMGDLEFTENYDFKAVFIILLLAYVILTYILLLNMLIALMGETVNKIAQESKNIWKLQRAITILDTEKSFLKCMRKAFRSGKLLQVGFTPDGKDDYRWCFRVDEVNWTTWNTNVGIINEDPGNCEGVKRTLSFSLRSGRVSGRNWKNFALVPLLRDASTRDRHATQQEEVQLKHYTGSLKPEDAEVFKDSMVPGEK

The term Hill coefficient denotes a measure of the steepness of the concentration-response curve. The term pKd denotes the Kd on a negative log10 scale, so that one unit is a factor of ten. The low end stands for a large Kd, the high end for a small Kd. As to `C=C(C)[C@]12C[C@@H](C)[C@@]34O[C@](Cc5ccccc5)(O[C@@H]1[C@@H]3C=C(COC(=O)Cc1ccc(O)c(OC)c1)C[C@]1(O)C(=O)C(C)=C[C@@H]41)O2` [[^3 H]RTX, [^3 H]resiniferatoxin], in assay [1], the Hill coefficient came out at 0.87. In assay [1] (3 separate experiments, LIGAND), this compound showed a Bmax of 90 fmol/mg and a pKd of 9.89. Moreover, the “specific binding” value in assay [2] is “Specific binding is observed”. In the assay with striatum, the “detection of [^3H]RTX binding” value is recorded as “very difficult”.

Source of the values: US5232684A, “Labelled resiniferatoxin, compositions thereof, and methods for using the same” (priority 1990, dated 1993).
